# The PolyMetriX glass transition set
# ± gives the standard deviation of the reports.
row,SMILES,glass transition temperature [°C]
1,*O[Si](C)(C)COC(=O)CCCCCCCCC(=O)Oc1ccc(S(=O)(=O)c2ccc(Oc3ccc(/C=C4\CCC/C(=C\c5ccc(Oc6ccc(S(=O)(=O)c7ccc(OC(=O)CCCCCCCCC(=O)OC[Si](*)(C)C)cc7)cc6)cc5)C4=O)cc3)cc2)cc1 (repeat unit),80.00
2,*c1cccc(N2C(=O)c3ccc(Oc4ccc(Oc5ccc(Oc6ccc7c(c6)C(=O)N(*)C7=O)cc5)cc4)cc3C2=O)c1 (repeat unit),227.00
3,*c1ccc(C(=O)OCCCCCCCCOc2ccc(/C=C/C(=O)/C=C/c3ccc(OCCCCCCCCOC(=O)c4ccc(-c5nnc(*)o5)cc4)cc3)cc2)cc1 (repeat unit),59.00
4,*CC(*)(F)C(=O)OCC (repeat unit),94.00
5,*C1C(=O)OC(=O)C1C1C2CC(COCCC)C(C2)C1* (repeat unit),209.00
6,*c1ccc2c(c1)C(=O)N(c1ccc(N3C(=O)c4ccc(-c5c(-c6ccccc6)c(-c6ccccc6)c(-c6ccc(Sc7ccc(-c8c(-c9ccccc9)c(-c9ccccc9)c(*)c(-c9ccccc9)c8-c8ccccc8)cc7)cc6)c(-c6ccccc6)c5-c5ccccc5)cc4C3=O)cc1)C2=O (repeat unit),344.00
7,*CC(*)(C)C(=O)OCc1ccc2c(c1)c1ccccc1n2CC (repeat unit),136.00
8,*c1ccc(NC(=O)Cc2ccc(-c3sc(-c4ccc(CC(=O)Nc5ccc(-c6sc(*)c(-c7ccccc7)c6-c6ccccc6)cc5)cc4)c(-c4ccccc4)c3-c3ccccc3)cc2)cc1 (repeat unit),273.00
9,*CCCCOC(=O)NCCCCNC(=O)O* (repeat unit),7.00
10,*CCc1ccc(*)c(CCCC)c1 (repeat unit),20.00
11,*CC(O)COc1ccc(C(=O)c2ccc(O*)cc2)cc1 (repeat unit),130.00
12,*OP(=O)(Oc1ccc(NC(=O)Oc2ccc(-c3ccc(OC(=O)Nc4ccc(*)cc4)cc3)cc2)cc1)c1ccccc1 (repeat unit),34.00
13,*CC(*)(Cl)Cl (repeat unit) [Poly(vinylidene chloride)],-9.83 ± 9.4
14,*CCCCCCCCNC(=O)CCCCCCCCCCC(=O)N* (repeat unit),50.00
15,*CC(*)(C)C(=O)OCc1ccc(Cl)c(Cl)c1 (repeat unit),34.5
16,*Oc1ccc(C(C)(C)c2ccc(OC(=O)c3ccc(C(*)=O)cc3)c(Cl)c2)cc1Cl (repeat unit),190.00
17,*CC(*)C(=O)OCCCCCCCCn1c2ccccc2c2ccccc21 (repeat unit),12.00
18,*Oc1ccc(/C(=C/c2ccc(-c3ccc(/C=C(\c4ccccc4)c4ccc(OC(=O)c5ccc(C(*)=O)cc5)cc4)cc3)cc2)c2ccccc2)cc1 (repeat unit),236.00
19,*c1ccc(Oc2ccc(C(=O)c3ccc(-c4ccc(C(=O)c5ccc(Oc6ccc(-c7nc(-c8ccccc8)[nH]c7*)cc6)cc5)cc4)cc3)cc2)cc1 (repeat unit),258.00
20,*C(=O)OCCCCCCCCCCCCOC(=O)c1ccc(NC(=O)c2ccc(N3C(=O)c4ccc(*)cc4C3=O)cc2)cc1 (repeat unit),74.00
21,*CCCCCCNC(=O)c1ccc(C(=O)N*)c(Oc2ccccc2)c1 (repeat unit),108.00
22,*NC(C)(CC)C(*)=O (repeat unit),74.2

row,SMILES,glass transition temperature [°C]
1,*CC(*)OCC(C)(C)CC (repeat unit),9.00
2,*Nc1ccc(C(C)(C)c2ccc(NC(=O)c3cc(NC(=O)c4ccccc4)cc(C(*)=O)c3)cc2)cc1 (repeat unit),303.50
3,*c1ccc(Oc2ccc(N3C(=O)c4ccc(Oc5ccc(C(c6ccc(Oc7ccc8c(c7)C(=O)N(*)C8=O)cc6)(C(F)(F)F)C(F)(F)F)cc5)cc4C3=O)cc2)cc1 (repeat unit),226.50 ± 43
4,*C(=O)c1ccc2c(c1)C(=O)N(c1ccc(C3(C)CC(C)(C)c4ccc(N5C(=O)c6ccc(*)cc6C5=O)cc43)cc1)C2=O (repeat unit),320.00
5,*OCCOC(=O)CCCCC(=O)OCCOc1nc(-c2ccc(OCCCC)cc2)nc(*)c1-c1ccc(OC)cc1 (repeat unit),34.00
6,*O[Si](C)(CCC(F)(F)F)CCC(F)(F)C(F)(F)C(F)(F)C(F)(F)C(F)(F)C(F)(F)CC[Si](*)(C)CCC(F)(F)F (repeat unit),-24.00
7,*Nc1ccc(NC(=O)c2cccc(C(=O)c3ccc(C(*)=O)cc3)c2)cc1 (repeat unit),257.50
8,*c1cccc(N2C(=O)c3ccc(Oc4cccc(Oc5ccc6c(c5)C(=O)N(*)C6=O)c4)cc3C2=O)c1 (repeat unit),224.00
9,*Oc1ccc(N(c2ccccc2)c2ccc(-c3ccc(N(c4ccccc4)c4ccc(*)cc4)cc3)cc2)cc1 (repeat unit),218.00
10,*CC(*)(F)C(C)=O (repeat unit),142.00
11,*/C=C/CC(C*)c1ccccc1 (repeat unit),14.00
12,*CCCOC(=O)Nc1ccc(Cc2ccc(NC(=O)O*)cc2)cc1 (repeat unit),119.00
13,*CC(*)(C)C(=O)OCC[N+](C)(C)CCCCS(=O)(=O)O (repeat unit),261.00
14,*Oc1ccc(Oc2ccc(NC(=O)c3cccc(C(=O)Nc4ccc(*)cc4)c3)cc2)cc1C(C)(C)C (repeat unit),208.00
15,*c1ccc(C(*)C)cc1 (repeat unit),93.00
16,*C(=O)c1ccc2c(c1)C(=O)N(C1CCC(CC3CCC(N4C(=O)c5ccc(*)cc5C4=O)C(C)C3)CC1C)C2=O (repeat unit),240.00
17,*CC(*)C(=O)OC(F)(F)C(F)(F)C(F)(F)C(F)(F)C(F)(F)C(F)(F)C(F)(F)C(F)(F)F (repeat unit),9.00
18,*Oc1ccc(Oc2ccc(NC(=C(C#N)C#N)c3cccc(C(Nc4ccc(*)cc4)=C(C#N)C#N)c3)cc2)cc1 (repeat unit),228.00
19,*CCCCCCCCCCN/C(C)=N/* (repeat unit),80.00
20,*Oc1c(-c2ccccc2)cc(*)cc1-c1ccc(C(C)(C)C)cc1 (repeat unit),240.00
21,*c1ccc2c(c1)C(=O)N(c1ccc(Cc3ccc(N4C(=O)c5ccc(C(F)(F)C(F)(F)C(*)(F)F)cc5C4=O)cc3)cc1)C2=O (repeat unit),290.00
22,*Oc1ccc(-c2ccc(OC(=O)c3cc(/N=N/c4ccc(OCC)cc4)ccc3-c3ccc(/N=N/c4ccc(OCC)cc4)cc3C(*)=O)cc2)cc1 (repeat unit),165.00

row,SMILES,glass transition temperature [°C]
1,*CCCCCCCCCCCCCCCCOC(=O)NCc1ccc(CNC(=O)O*)cc1 (repeat unit),47.00
2,*C(=O)c1ccc2c(c1)C(=O)N(c1ccc(Oc3ccc(N4C(=O)c5ccc(*)cc5C4=O)cc3)cc1)C2=O (repeat unit),290.00 ± 28
3,*Oc1ccc(CC(NC(=O)CCc2ccc(OC(=O)CCC(*)=O)cc2)C(=O)OC)cc1 (repeat unit),91.50
4,*CC(*)(C)C(=O)OCc1cccs1 (repeat unit),66.00
5,*Oc1ccc(NC(=O)c2cc(NC(=O)CCCCCN3C(=O)c4ccccc4C3=O)cc(C(=O)Nc3ccc(*)cc3)c2)cc1 (repeat unit),200.00
6,*Nc1cc([N+](=O)[O-])c(NC(=O)CCCCCCCCC(*)=O)cc1/C=C/c1ccc(N(C)C)cc1 (repeat unit),159.00
7,*CCC/C=C(/*)c1ccc(OC)cc1 (repeat unit),11.00
8,*CC(*)(C)C(=O)OCCCCCCOc1ccc(C(=O)Oc2ccc(/N=N/c3ccccc3)c3ccccc23)cc1 (repeat unit),46.00
9,*c1ccc(-c2ccc([Si](*)(C)C)s2)s1 (repeat unit),45.00
10,*O[Si](*)(C)CCCCCCCC (repeat unit),-92.00
11,*c1ccc(-c2nc3cc(S(=O)(=O)c4ccc5nc(*)c(-c6ccccc6)nc5c4)ccc3nc2-c2ccccc2)cc1 (repeat unit),277.50
12,*C(=O)Nc1c(C)cc(Cc2cc(C)c(NC(=O)c3ccc4c(c3)C(=O)N(c3ccc(/N=N/c5ccc(OC(F)(F)F)cc5)c(N5C(=O)c6ccc(*)cc6C5=O)c3)C4=O)c(C)c2)cc1C (repeat unit),278.00
13,*C(=O)c1ccc2c(c1)C(=O)N(c1cccc(C(c3cccc(N4C(=O)c5ccc(*)cc5C4=O)c3)(C(F)(F)F)C(F)(F)F)c1)C2=O (repeat unit),239.00
14,*Oc1ccc(Oc2ccc(C(=O)Nc3ccc(Oc4ccc(-c5ccc(Oc6ccc(NC(=O)c7ccc(*)cc7)cc6)cc5)cc4)cc3)cc2)cc1C (repeat unit),220.00
15,*CCc1ccc(*)c(C#N)c1 (repeat unit),90.00
16,*C(=O)c1ccc2c(c1)C(=O)N(c1ccc(Oc3ccc(S(=O)(=O)c4ccc(C)cc4)cc3)c(N3C(=O)c4ccc(*)cc4C3=O)c1)C2=O (repeat unit),293.00
17,*Oc1ccc(C(C)(C)c2ccc(Oc3ccc(C(=O)Nc4ccc(NC(=O)c5ccc(*)cc5)cc4)cc3)cc2)cc1 (repeat unit),230.00
18,*CC(*)(C)C(=O)OCCCCCCCC (repeat unit),-11.00
19,*c1ccc(Oc2cccc(Oc3ccc(N4C(=O)c5ccc(Oc6ccc(C(C)(C)c7ccc(Oc8ccc9c(c8)C(=O)N(*)C9=O)cc7)cc6)cc5C4=O)cc3)c2C#N)cc1 (repeat unit),213.00
20,*CC(*)OCCCCC (repeat unit) [Poly(vinyl n-pentyl ether)],-66 ± 0.6
21,*C(=O)Nc1ccc(Oc2ccc(C(C)(C)c3ccc(Oc4ccc(NC(=O)c5ccc6c(c5)C(=O)N(c5ccc(-c7sc(-c8ccc(N9C(=O)c%10ccc(*)cc%10C9=O)cc8)c(-c8ccccc8)c7-c7ccccc7)cc5)C6=O)cc4)cc3)cc2)cc1 (repeat unit),287.00
22,*CCOCCOC(=O)c1ccccc1-c1ccccc1C(=O)O* (repeat unit),17.00
